Test results taken from patent publication US12391701B2, “Chromene-based compounds, methods and uses thereof” (University of Minho, priority 2019, dated 2025).
In brackets after ≈: the same amount, converted by molar mass.

Tests used:
C57BI/6 mice = test: Toxicity in C57BI/6 mice, 1st trial; format: in vivo
Description: In an embodiment, the safety profiles of the compounds were evaluated in rodents. […] FIG. 13A is a schematic representation of the experiment timeline. 5-month old female and male animals were used (n=3/group/gender) and injected either with MC408 3 mg/Kg or vehicle (saline, Tween80 and methylcellulose) (i.p.) daily for 7 days. A battery of welfare tests was performed daily. […] The activity was measured in a viewing jar and the number of vertical movements were counted for 5 minutes. […] The activity was recorded in an open arena labelled with squares and the number of squares were counted while the animals were freely exploring for 1 minute. […] In FIGS. 13G and H, water and food intake were analysed respectively. Each day, […] of food and 200 mL of water were placed in each cage. […] Data is presented as mean±SE.
In an embodiment, C57/BI6 female and male mice (n=3/group/gender) were intraperitoneally injected with MC408 (3 mg/Kg) or vehicle (saline, Tween80 and methylcellulose) daily, for 7 days to determine toxicity of the compounds in mice model. A battery of tests to assess mice welfare were performed daily. Immediately after the first drug administration, animals were videotaped and the immediate effects of MC408 were recorded. The number of vertical movements and the immobility time were recorded. Water and food intake were evaluated during the 7 days of the experiment, by adding a fixed amount of food and water in the animal's home cage in the 1st day and measuring the remaining amount at day 7. Body weight was assessed every day in a dynamic mouse scale. Horizontal and vertical activity was analysed to evaluate animals' intrinsic exploratory behavior; these were measured in an open arena with labelled squares for 1 minute and in a viewing jar for 5 minutes, respectively. Furthermore, the number of bolus faecalis were also counted while animals were performing the daily behavior assessment protocols, as a measure of anxiety. A battery of tests more related to animal welfare was applied by the experimenter, including measurements of: (i) body position and curvature; (ii) spontaneous activity; (iii) respiratory rate; (iv) eyelid opening and reflexes; (v) skin picking to analyse dehydration; (vi) grooming; (vii) fur erection; (viii) tremors; (ix) limb clasping and (x) reaction to transfer. At day 7, the animals were euthanized. All animals were deeply anesthetized (ketamine hydrochloride (150 mg/kg) and medetomidine (0.3 mg/kg)) and transcardially perfused with a saline solution (NaCl 0.9% (wt/v)). Blood was collected from the cava vein, centrifuged for 10 minutes at 13.000 rpm and the plasma was transferred to a new tube and stored at −80° C. until further processing for enzymatic liver function measurements using standard techniques. The organs (kidney, intestine, stomach, brain, liver, ovary/testis) were harvested and placed in tubes containing 4% paraformaldehyde and further processed for paraffin embedding and pathology analysis.

[1] = system: TNBC cell line MDA-MB-231; test: Orthotopic breast cancer xenograft in NSG mice; format: in vivo
Description: In an embodiment, the in vivo therapeutic efficacy of compound MC408 was analysed using the mouse model. […] MDA-MB-231 cells were injected into the mammary fat pad of NSG mice (n=6 or 7 per group). Treatment was administered 3 days post-implantation for one week. NT=Vehicle; Dose 1=3 mg/kg; Dose 2=10 mg/kg; Dose 3=50 mg/kg. *, p<0.05; **, p<0.01; ****, p<0.0001 (compared to NT group; two-way ANOVA post-hoc Tukey's test or unpaired t-test with Welch's correction).
In an embodiment, NSG (NOD Scid Gamma) female mice (3-6 months) were injected with a mixture of 0.6×10^6 MDA-MB-231 breast cancer cells and matrigel (ratio 1:1) in the mammary fat pad. Mice were randomly assigned to treatment groups (at least 6 mice/group), which was started 3 days post-implantation using 3 independent doses of compound MC408 (dose 1=3 mg/kg, dose 2=10 mg/kg, and dose 3=50 mg/kg) or vehicle (PBS 1× and Matrigel, ratio 1:1), and was administered daily for 7 days. Mice were maintained under standard laboratory conditions. Animal tumor size (calculated by measuring the two largest sides and applying the formula: v=3.14×L1×L1×L2/6; being L1 the largest side, and L2 the other one) was measured and recorded regularly. At day 47 post-implantation, animals were sacrificed and tumors were excised. All animal procedures were conducted in accordance with the guidelines for the care and use of laboratory animals (European Directive 2010/63/EU).

[2] = Highest soluble concentration in C. elegans assay; format: physicochemical; conditions: C. elegans liquid culture medium (S-medium) with 1% DMSO, 20 °C, aqueous buffer, kinetic from dmso stock, read-out: highest soluble concentration possible
Description: The compounds were tested at several concentrations, up to the highest soluble concentration possible −150 μM (MC369, 75 μM) (FIG. 12). […] The rate of food consumption between days 3-5 was used as an indication for worm development, health and fertility and compared to 1% DMSO, (vehicle, not toxic).
In an embodiment, Bristol strain N2 (provided by the CGC, funded by the NIH Office of Research Infrastructure Programs—P40 OD010440) was used to test each compound's toxicity based on a food clearance assay using C. elegans. The assay was performed on 96-well plates in liquid culture (Voisine et al. 2007; Teixeira-Castro et al. 2015). Each well, with a final volume of 60 μL, comprised the following: approximately 20 worms in egg stage, OP50 bacteria to a final OD of 0.6-0.8 (595 nm) and each compound at the appropriate concentration. The worms were grown with continuous shaking at 180 rpm/20° C. (Shel lab Si series incubator) for 7 days and the absorbance (OD595) was measured daily on a microplate reader (Tecan Infinite M200). The effect of the compounds on C. elegans physiology was monitored by the rate at which the E. coli food suspension was consumed (FIG. 14). Age-synchronized worm eggs were obtained by “egg prep” as follows: adult worms were treated with an alkaline hypochlorite solution (20% bleach, 25% 1M NaOH) for 6 minutes, thereafter centrifuged and washed in M9 buffer twice. […]

[3] = 3, 10, 50 mg/kg daily for 7 days, dose-dependent

SMILES	exploratory activities (vertical and horizontal) (C57BI/6 mice; 3 mg/Kg i.p. daily for 7 days)	number of bolus faecalis (indirect measure of anxiety) (C57BI/6 mice; 3 mg/Kg i.p. daily for 7 days)	body weight (C57BI/6 mice; 3 mg/Kg i.p. daily for 7 days, 1st trial)	water and food intake (C57BI/6 mice; 3 mg/Kg i.p. daily, measured at day 7)	battery of welfare tests (C57BI/6 mice; 3 mg/Kg i.p. daily, vs vehicle)	immobility time and vertical movement (REARS) immediately after first injection (C57BI/6 mice; 3 mg/Kg i.p., 10 min, vs vehicle)	serum AST and ALT (enzymatic liver function) (C57BI/6 mice; day 7, females and males, vs vehicle)	tumor volume [1, 3]	tumor weight [1, 3]	reduction of tumor volume comparing to the vehicle group ([1]; dose of 50 mg/kg)	reduction of tumor weight comparing to the vehicle group ([1]; dose of 50 mg/kg)	weight loss and other side effects ([1]; tested treatment regimen, whole experiment)	solubility [2]
COc1cccc2c1Oc1nc(-c3ccc(Br)cc3)[nH]c1C2 [MC408, 2-(4-bromophenyl)-5-methoxy-3,9-dihydrochromeno[2,3-d]imidazoles]	No differences were found	no differences were observed	no differences were found	no differences were found	no impact	No differences were found	No statistical differences	significantly decreased	significantly decreased	more than 40%	more than 40%	no weight loss nor other side effects	
COc1cccc2c1Oc1nc(-c3ccccc3F)[nH]c1C2C1c2cccc(OC)c2Oc2nc(-c3ccccc3F)[nH]c21 (stereo not shown) [MC369, 2,2′-bis(2-fluorophenyl)-5,5′-dimethoxy-1,1,9,9′-tetrahydro-9,9′-bichromeno[2,3-]imidazoles]													75 µM (≈ 44.3 µg/mL)
